Measurements from the Kinase Knowledgebase extract (Sharma et al. 2016).

Key:
[1] = target: PIK3CD (Human) (UniProt O00329); experiment: Assessment of PI3KCD Kinase Activity
[2] = target: PIK3CB (Human) (UniProt P42338); experiment: Assessment of PI3KCB Kinase Activity
[3] = target: PIK3CA (human) (UniProt P42336); experiment: Assessment of PI3KCA Kinase Activity
[4] = target: PIK3CG (human) (UniProt P48736); experiment: Assessment of PI3KCG Kinase Activity

Measured: IC50

Sequence of PIK3CD (Human) (O00329 whole entry, looked up): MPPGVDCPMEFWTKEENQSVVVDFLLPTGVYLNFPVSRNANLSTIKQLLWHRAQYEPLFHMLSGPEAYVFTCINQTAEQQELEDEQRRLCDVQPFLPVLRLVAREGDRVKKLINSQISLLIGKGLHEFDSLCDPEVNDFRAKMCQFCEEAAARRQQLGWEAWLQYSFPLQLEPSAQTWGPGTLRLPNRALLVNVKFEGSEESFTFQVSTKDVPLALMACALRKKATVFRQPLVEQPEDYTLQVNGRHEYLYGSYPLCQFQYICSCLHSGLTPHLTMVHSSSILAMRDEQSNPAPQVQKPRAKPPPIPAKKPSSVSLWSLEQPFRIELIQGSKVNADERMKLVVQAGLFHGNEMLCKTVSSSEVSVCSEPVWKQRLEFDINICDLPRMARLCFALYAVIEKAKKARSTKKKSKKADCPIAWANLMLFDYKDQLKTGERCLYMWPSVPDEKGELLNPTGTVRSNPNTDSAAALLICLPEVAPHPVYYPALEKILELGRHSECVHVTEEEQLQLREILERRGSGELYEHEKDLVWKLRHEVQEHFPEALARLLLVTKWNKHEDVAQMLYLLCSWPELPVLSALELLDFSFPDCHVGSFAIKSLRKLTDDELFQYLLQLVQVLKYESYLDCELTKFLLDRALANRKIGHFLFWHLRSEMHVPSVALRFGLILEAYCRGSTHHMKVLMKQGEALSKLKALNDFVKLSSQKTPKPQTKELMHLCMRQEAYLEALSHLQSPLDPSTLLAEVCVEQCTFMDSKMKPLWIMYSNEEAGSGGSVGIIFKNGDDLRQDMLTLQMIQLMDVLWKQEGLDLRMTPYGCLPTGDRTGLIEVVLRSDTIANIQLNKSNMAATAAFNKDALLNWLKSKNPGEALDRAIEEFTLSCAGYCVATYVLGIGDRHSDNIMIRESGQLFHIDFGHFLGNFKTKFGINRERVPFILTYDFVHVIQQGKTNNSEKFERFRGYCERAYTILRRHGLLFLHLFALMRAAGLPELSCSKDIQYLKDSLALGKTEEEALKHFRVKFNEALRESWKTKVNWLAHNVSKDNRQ
Sequence of PIK3CA (human) (P42336 whole entry, looked up): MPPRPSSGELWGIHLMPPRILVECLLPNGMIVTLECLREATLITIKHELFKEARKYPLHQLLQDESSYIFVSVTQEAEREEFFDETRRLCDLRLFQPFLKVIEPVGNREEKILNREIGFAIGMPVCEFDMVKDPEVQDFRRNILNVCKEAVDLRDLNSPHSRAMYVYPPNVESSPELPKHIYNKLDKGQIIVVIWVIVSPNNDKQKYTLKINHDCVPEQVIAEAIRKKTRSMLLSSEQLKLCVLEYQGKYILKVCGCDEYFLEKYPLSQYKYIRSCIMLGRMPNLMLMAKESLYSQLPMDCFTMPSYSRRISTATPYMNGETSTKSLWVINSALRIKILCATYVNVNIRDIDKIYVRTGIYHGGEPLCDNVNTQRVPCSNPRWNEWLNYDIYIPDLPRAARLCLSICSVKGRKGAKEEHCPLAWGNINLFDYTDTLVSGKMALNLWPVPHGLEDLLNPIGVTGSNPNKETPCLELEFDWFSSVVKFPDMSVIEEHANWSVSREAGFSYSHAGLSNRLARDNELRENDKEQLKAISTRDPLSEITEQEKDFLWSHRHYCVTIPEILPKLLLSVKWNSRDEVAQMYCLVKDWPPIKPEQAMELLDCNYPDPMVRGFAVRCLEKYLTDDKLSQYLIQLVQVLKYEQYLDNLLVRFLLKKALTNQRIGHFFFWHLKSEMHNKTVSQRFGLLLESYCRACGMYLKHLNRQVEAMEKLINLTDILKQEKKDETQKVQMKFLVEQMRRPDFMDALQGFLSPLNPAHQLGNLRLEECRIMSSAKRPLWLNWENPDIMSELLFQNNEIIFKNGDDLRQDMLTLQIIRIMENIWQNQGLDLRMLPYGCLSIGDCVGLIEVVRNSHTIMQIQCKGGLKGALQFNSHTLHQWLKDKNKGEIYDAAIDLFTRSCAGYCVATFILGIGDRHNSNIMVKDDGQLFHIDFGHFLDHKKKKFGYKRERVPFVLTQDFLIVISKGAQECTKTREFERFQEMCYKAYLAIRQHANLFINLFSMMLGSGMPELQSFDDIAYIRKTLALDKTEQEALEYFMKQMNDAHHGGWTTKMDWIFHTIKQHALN
Sequence of PIK3CB (Human) (P42338 whole entry, looked up): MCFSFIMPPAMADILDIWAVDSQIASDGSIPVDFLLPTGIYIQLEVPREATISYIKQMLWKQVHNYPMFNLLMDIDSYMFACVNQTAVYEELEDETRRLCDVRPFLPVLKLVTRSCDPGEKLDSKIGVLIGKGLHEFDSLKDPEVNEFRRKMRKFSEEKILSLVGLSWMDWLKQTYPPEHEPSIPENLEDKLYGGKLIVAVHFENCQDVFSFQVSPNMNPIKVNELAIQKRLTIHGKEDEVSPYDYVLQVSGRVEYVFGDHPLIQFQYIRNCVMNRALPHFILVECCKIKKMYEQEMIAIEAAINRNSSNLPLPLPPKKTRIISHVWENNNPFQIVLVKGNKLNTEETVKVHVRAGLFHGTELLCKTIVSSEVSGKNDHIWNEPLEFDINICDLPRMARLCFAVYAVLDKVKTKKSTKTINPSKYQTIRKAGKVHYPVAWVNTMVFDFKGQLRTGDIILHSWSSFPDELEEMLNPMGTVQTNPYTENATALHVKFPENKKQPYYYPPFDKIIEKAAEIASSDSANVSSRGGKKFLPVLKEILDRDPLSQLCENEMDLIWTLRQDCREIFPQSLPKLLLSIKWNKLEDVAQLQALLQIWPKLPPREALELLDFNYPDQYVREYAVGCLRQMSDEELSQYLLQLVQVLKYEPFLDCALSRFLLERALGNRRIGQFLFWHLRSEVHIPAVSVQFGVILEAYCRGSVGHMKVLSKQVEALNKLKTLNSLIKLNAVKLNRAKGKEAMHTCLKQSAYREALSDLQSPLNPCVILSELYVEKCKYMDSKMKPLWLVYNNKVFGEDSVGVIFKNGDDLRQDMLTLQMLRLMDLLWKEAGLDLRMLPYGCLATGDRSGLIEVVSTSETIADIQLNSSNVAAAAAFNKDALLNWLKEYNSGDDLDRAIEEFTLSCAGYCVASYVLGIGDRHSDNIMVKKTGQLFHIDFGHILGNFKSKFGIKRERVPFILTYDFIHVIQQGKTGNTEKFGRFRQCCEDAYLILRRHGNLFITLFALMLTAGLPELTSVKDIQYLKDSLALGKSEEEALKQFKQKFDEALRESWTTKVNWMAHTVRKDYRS
Sequence of PIK3CG (human) (P48736 whole entry, looked up): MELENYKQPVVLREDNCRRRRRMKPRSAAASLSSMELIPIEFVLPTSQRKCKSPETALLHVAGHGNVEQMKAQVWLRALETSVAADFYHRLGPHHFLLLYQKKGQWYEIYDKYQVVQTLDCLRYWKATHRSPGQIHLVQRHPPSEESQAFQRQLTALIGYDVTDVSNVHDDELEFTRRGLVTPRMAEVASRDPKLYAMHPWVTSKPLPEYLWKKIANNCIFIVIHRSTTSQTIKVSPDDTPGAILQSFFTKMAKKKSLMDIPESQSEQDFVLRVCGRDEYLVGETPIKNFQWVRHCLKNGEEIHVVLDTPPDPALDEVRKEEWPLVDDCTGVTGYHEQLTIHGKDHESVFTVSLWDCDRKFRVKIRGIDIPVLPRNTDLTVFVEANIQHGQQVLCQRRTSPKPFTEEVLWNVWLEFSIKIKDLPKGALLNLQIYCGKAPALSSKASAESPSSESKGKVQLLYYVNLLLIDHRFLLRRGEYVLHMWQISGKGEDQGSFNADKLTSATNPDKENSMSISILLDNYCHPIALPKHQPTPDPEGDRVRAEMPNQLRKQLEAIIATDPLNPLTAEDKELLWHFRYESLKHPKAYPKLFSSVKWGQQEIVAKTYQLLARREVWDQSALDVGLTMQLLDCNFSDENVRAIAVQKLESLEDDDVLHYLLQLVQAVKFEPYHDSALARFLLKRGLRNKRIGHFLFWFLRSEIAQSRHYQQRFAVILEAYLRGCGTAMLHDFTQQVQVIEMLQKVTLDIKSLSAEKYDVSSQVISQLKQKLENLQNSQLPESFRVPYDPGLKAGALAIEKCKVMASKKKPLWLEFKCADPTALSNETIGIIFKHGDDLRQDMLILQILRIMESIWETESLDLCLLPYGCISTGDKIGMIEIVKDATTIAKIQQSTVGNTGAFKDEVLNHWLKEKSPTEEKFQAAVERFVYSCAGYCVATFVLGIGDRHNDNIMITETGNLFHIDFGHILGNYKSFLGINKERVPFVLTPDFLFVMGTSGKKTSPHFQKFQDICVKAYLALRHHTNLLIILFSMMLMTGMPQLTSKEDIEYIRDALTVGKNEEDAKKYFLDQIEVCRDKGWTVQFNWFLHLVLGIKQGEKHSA

CC(=O)Nc1nc2ccc(-c3nn(Cc4cc5cccc(Cl)c5c(=O)n4C(C)C)c4ncnc(N)c34)cc2s1
< 100 nM: [1] | [2] | [3]

CC(=O)Nc1nc2ccc(-c3nn(Cc4cc5cccc(Cl)c5c(=O)n4C4CC4)c4ncnc(N)c34)cc2s1
< 100 nM: [1] | [2] | [3]

Nc1ncnc2c1c(-c1cc(O)cc(F)c1)nn2Cc1cc2cccc(Cl)c2c(=O)n1C1CC1
< 100 nM: [4] | [1] | [2] | [3]

CC(=O)Nc1nc2ccc(-c3nn(Cc4cc5cccc(C)c5c(=O)n4C4CC4)c4ncnc(N)c34)cc2s1
< 100 nM: [1] | [2] | [3]
